According to patent US20100159496A1, “EVALUATION METHOD FOR PHOTOSYNTHESIS SAMPLE, EVALUATION SYSTEM FOR PHOTOSYNTHESIS SAMPLE, AND EVALUATION PROGRAM FOR PHOTOSYNTHESIS SAMPLE” (HAMAMATSU PHOTONICS K.K., priority 2006, published 2010):

Columns and labels:
[1] = system: Spirulina platensis; assay: Delayed luminescence of S. platensis exposed to simazine, fitted by Formula (1); format: cell-based; design: Fitting formula value c3 / Fitting formula value a1 / Fitting formula value b1 / Fitting formula value c1 / Fitting formula value a2 / Fitting formula value b2 / Fitting formula value c2 / Fitting formula value a3 / Fitting formula value b3: unit not given here; details: for luminescence amount of delayed luminescence, exposed vs not exposed: 15 minutes after exposure (FIG. 10); for Fitting formula value a1 / Fitting formula value a2 / Fitting formula value a3 / Fitting formula value b1 / Fitting formula value b2 / Fitting formula value b3 / Fitting formula value c1 / Fitting formula value c2 / Fitting formula value c3: 15 minutes after exposure
Description: In the present example, the measurement of delayed luminescence was carried out as follows. 2.5 mL of an S. platensis cell suspension, adjusted to have an absorbance at 660 nm of 0.05 in a general, 10×10 mm spectrometric cell, was exposed to simazine of any of various concentrations and left to stand for 15 minutes under a white fluorescent lamp of a light amount of 50 μmol·m−2·s−1. Thereafter, inside the measuring device 10, a red light (660 nm) of approximately 300 μmol·m−2·s−1 was illuminated for 10 seconds from the light source 18 as the excitation light for making delayed luminescence be emitted and then the delayed luminescence emitted after extinguishing of the excitation light was recorded for 50 seconds at 0.1 second intervals.
In the present example, the above-described Formula (1) was used for fitting. As examples for description of the fitting results, the measurement result for the “Not exposed” case is shown in FIG. 11A and a graph of the results of fitting to the measurement data are shown in FIG. 11B. In FIG. 11B, f1(t), f2(t), and f3(t) are respectively the first function, the second function, and the third function in Formula (1). From FIG. 11, it can be understood that the delayed luminescence measurement data can be fitted by a plurality of hill-shaped functions.
By the fitting, the function coefficients, ai, bi, and ci (i=1, 2, 3) are determined.

[2] = system: Spirulina platensis; assay: Algae growth inhibition, area under growth curve (OECD Test Guideline 201), S. platensis; format: cell-based; details: 72 hours after exposure, various simazine concentrations (FIG. 9)
Description: The area under the growth curve indicates cell growth, which is a conventional evaluation index of chemical substance impact on algae and is computed in compliance to a method for evaluating the impact of a chemical substance on a general algae (OECD Test Guideline 201). That is, the area under the growth curve is the area under the growth curve obtained by culturing 6 mL of an S. platensis cell suspension, adjusted to have an absorbance at 750 nm of 0.03, under a white fluorescent lamp (50 μmol·m−2·s−1) for 72 hours after chemical substance exposure and measuring, every 24 hours, a cell density as the absorbance at 750 nm.

[3] = simazine exposure concentration 5 μg/L
[4] = simazine exposure concentration 25 μg/L
[5] = simazine exposure concentration 50 μg/L
[6] = simazine exposure concentration 100 μg/L

Q: Which results are given for CCNc1nc(Cl)nc(NCC)n1 [Simazine, simazine]?
A: variation of evaluation value c3 with simazine exposure concentration ([1]; S. platensis (FIG. 12)): decreases in accordance with the simazine exposure concentration; luminescence amount of delayed luminescence, exposed vs not exposed ([1]; early time period (near 0 seconds) of time after excitation): increases; luminescence amount of delayed luminescence, exposed vs not exposed ([1]; later time period (5 seconds onward) after excitation): decreases; Fitting formula value a1 [1, 3]: 0.2; Fitting formula value a2 [1, 3]: 0.01; Fitting formula value a3 [1, 3]: 0.006; Fitting formula value b1 [1, 3]: −0.5; Fitting formula value b2 [1, 3]: −0.5; Fitting formula value b3 [1, 3]: 22; Fitting formula value c1 [1, 3]: 4.5; Fitting formula value c2 [1, 3]: 3.5; Fitting formula value c3 [1, 3]: 2.2; Fitting formula value a1 [1, 4]: 0.2; Fitting formula value a2 [1, 4]: 0.018; Fitting formula value a3 [1, 4]: 0.005; Fitting formula value b1 [1, 4]: −0.5; Fitting formula value b2 [1, 4]: −0.5; Fitting formula value b3 [1, 4]: 22; Fitting formula value c1 [1, 4]: 4.8; Fitting formula value c2 [1, 4]: 3.8; Fitting formula value c3 [1, 4]: 1.6; Fitting formula value a1 [1, 5]: 0.3; Fitting formula value a2 [1, 5]: 0.02; Fitting formula value a3 [1, 5]: 0.01; Fitting formula value b1 [1, 5]: −0.5; Fitting formula value b2 [1, 5]: −0.5; Fitting formula value b3 [1, 5]: 21; Fitting formula value c1 [1, 5]: 5; Fitting formula value c2 [1, 5]: 3.8; Fitting formula value c3 [1, 5]: 1.2; Fitting formula value a1 [1, 6]: 0.4; Fitting formula value a2 [1, 6]: 0.024; Fitting formula value a3 [1, 6]: 0.02; Fitting formula value b1 [1, 6]: −0.5; Fitting formula value b2 [1, 6]: −0.5; Fitting formula value b3 [1, 6]: 20; Fitting formula value c1 [1, 6]: 5.5; Fitting formula value c2 [1, 6]: 3.8; Fitting formula value c3 [1, 6]: 0.7; cell growth (area under the growth curve) [2]: inhibited according to the exposure concentration of simazine
